From ChEMBL document CHEMBL5260807, “Discovery of liver-directed glucokinase activator having anti-hyperglycemic effect without hypoglycemia” (Eur J Med Chem, 2017)

Experiments:
[1] = target: T1, Hexokinase-4 (Homo sapiens, UniProt P35557); assay: Activation of recombinant human glucokinase assessed as increase in maximal activation by measuring accumulation of NADH in presence of S0.5 of glucose and NAD by plate reader analysis
T1 sequence (P35557 whole entry): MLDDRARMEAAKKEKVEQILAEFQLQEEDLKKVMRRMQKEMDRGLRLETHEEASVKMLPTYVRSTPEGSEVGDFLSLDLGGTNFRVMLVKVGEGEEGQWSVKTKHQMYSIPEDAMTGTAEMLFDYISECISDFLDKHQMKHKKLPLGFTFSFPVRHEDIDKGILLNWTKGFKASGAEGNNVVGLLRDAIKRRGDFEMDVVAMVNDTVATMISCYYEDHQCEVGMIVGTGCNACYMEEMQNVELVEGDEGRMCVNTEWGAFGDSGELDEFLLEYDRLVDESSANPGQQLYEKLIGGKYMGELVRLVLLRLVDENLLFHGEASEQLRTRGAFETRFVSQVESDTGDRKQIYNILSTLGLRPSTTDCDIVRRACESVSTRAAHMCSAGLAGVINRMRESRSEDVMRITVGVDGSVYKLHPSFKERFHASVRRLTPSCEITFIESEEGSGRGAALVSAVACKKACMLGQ

[2] = target: T2, Hexokinase-4 (Rattus norvegicus) (UniProt P17712); assay: Activation of glucokinase in rat Primary hepatocytes assessed as fold increase in glycogen synthesis at 10 uM incubated for 30 mins using [U14C]-D-glucose as substrate by Microbeta TriLux luminescence counter analysis; type: cell-based; settings: Primary hepatocyte, filed as activator
T2 sequence (whole entry): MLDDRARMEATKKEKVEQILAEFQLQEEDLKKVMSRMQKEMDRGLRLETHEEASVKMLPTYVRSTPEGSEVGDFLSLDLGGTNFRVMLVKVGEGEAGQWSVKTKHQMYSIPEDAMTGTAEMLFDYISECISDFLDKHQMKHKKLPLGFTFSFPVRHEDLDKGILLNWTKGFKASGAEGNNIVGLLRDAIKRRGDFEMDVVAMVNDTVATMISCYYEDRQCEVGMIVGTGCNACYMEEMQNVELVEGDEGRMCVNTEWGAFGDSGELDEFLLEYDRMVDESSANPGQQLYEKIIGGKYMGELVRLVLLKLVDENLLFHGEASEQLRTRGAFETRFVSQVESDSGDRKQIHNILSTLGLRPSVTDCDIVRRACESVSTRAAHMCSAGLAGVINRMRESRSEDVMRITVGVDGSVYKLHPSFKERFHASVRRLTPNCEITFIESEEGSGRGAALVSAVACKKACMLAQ

[3] = target: T3, Hexokinase-4 (Homo sapiens) (UniProt P35557); assay: Activation of recombinant human glucokinase assessed as increase in maximal activation by measuring accumulation of NADH at 60 uM in presence of S0.5 of glucose and NAD by plate reader analysis; settings: filed as activator
T3 sequence (whole entry): T1 sequence (P35557 whole entry)

[4] = Cmax in C57BL/6J mouse at 30 mg/kg,po and measured after 2 hrs by LC-MS/MS analysis; type: ADME, organism-based; parameters: dose 30 mg/kg, time 2 hrs, route po; settings: in vivo
[5] = Oral bioavailability in C57BL/6J mouse at 30 mg/kg and measured after 2 hrs by LC-MS/MS analysis; type: ADME, organism-based; settings: in vivo
[6] = Drug distribution in C57BL/6J mouse liver at 30 mg/kg,po and measured after 1 hrs by LC-MS/MS analysis; type: ADME, organism-based; settings: read-out: Drug uptake
[7] = Drug distribution in C57BL/6J mouse liver at 30 mg/kg,po and measured after 3 hrs by LC-MS/MS analysis; type: ADME, organism-based; settings: read-out: Drug uptake
[8] = Drug distribution in C57BL/6J mouse in circulatory system at 30 mg/kg,po and measured after 1 hrs by LC-MS/MS analysis; type: ADME, organism-based; settings: read-out: Drug uptake
[9] = Drug distribution in C57BL/6J mouse in circulatory system at 30 mg/kg,po and measured after 3 hrs; type: ADME, organism-based; settings: read-out: Drug uptake
[10] = AUC(0 to t) in C57BL/6J mouse at 30 mg/kg,po; type: ADME, organism-based; parameters: dose 30 mg/kg, route po; settings: in vivo
[11] = Clearance in C57BL/6J mouse at 3 mg/kg,iv and measured after 2 hrs by LC-MS/MS analysis; type: ADME, organism-based; settings: in vivo
[12] = Volume of distribution at steady state in C57BL/6J mouse at 3 mg/kg,iv and measured after 2 hrs by LC-MS/MS analysis; type: ADME, organism-based; settings: in vivo, read-out: Vdss
[13] = Half life in C57BL/6J mouse at 3 mg/kg,iv and measured after 2 hrs by LC-MS/MS analysis; type: ADME, organism-based; settings: in vivo
[14] = Drug uptake in mouse hepatocytes at 1 to 100 uM incubated for 5 mins at 37 degreeC by LC-MS/MS analysis; type: ADME, cell-based, Hepatocyte; settings: dose 1-100 µM
[15] = Drug uptake in mouse hepatocytes at 1 to 100 uM incubated for 5 mins at 4 degreeC by LC-MS/MS analysis; type: ADME, cell-based, Hepatocyte; settings: dose 1-100 µM
[16] = Inhibition of drug uptake in mouse hepatocytes at 1 to 100 uM incubated for 5 mins in presence of rifamycin SV by LC-MS/MS analysis; type: cell-based, Hepatocyte; settings: dose 1-100 µM
[17] = system: Mus musculus; assay: Anti-hyperglycemic activity against diet induced obese C57BL/6J mouse assessed as reduction in AUCglucose level at 30 mg/kg ,po and measured upto 180 mins by OGTT; type: functional; parameters: scale not given: the % may be the effect or the level left; settings: 3 h
[18] = system: Mus musculus; assay: Anti-hyperglycemic activity against diet induced obese C57BL/6J mouse assessed as reduction in AUCglucose level at 100 mg/kg ,po and measured upto 180 mins by OGTT; type: functional; parameters: scale not given: the % may be the effect or the level left; settings: 3 h
[19] = Hypoglycemic activity in normoglycemic C57BL/6J mouse at 300 mg/kg ,po and measured upto 180 mins by glucose analysis; type: toxicity, organism-based; settings: in vivo, 3 h
[20] = Hypoglycemic activity in normoglycemic C57BL/6J mouse assessed as decrease in blood glucose level at 300 mg/kg ,po and measured upto 180 mins by glucose analysis; type: toxicity, organism-based; settings: in vivo, 3 h
[21] = AUC(0 to 24 hrs) in C57BL/6J mouse at 30 mg/kg,po and measured after 2 hrs by LC-MS/MS analysis; type: ADME, organism-based; parameters: time 2 hrs, dose 30 mg/kg, route po; settings: in vivo
[22] = Clearance in C57BL/6J mouse at 1 mg/kg,iv and measured after 2 hrs by LC-MS/MS analysis; type: ADME, organism-based; settings: in vivo
[23] = Volume of distribution at steady state in C57BL/6J mouse at 1 mg/kg,iv and measured after 2 hrs by LC-MS/MS analysis; type: ADME, organism-based; settings: in vivo, read-out: Vdss
[24] = Half life in C57BL/6J mouse at 1 mg/kg,iv and measured after 2 hrs by LC-MS/MS analysis; type: ADME, organism-based; settings: in vivo
[25] = system: Mus musculus; assay: Anti-hyperglycemic activity against diet induced obese C57BL/6J mouse assessed as blood glucose level at 10 to 300 mg/kg ,po and measured upto 180 mins by OGTT; type: functional, organism-based; settings: dose 10-300 mg/kg
[26] = Hypoglycemic activity in normoglycemic C57BL/6J mouse assessed as decrease in blood glucose level at 100 mg/kg ,po and measured upto 180 mins by glucose analysis; type: toxicity, organism-based; settings: in vivo, 3 h
[27] = Drug uptake in C57BL/6J mouse plasma at 30 mg/kg,po and measured after 1 hrs; type: ADME, organism-based
[28] = Drug uptake in C57BL/6J mouse plasma at 30 mg/kg,po and measured after 3 hrs; type: ADME, organism-based

O=C(O)c1ccc(Oc2cnc(NC(=O)C(Oc3ccc(F)cc3F)c3ccc(S(=O)(=O)C4CCOCC4)cc3)s2)cc1 (centres undefined)
EC50 [1]: 310 nM
fold change (FC) [2]: 3.04

CC(Oc1ccc(F)cc1F)(C(=O)Nc1nc(CC(=O)O)c(Cl)s1)c1ccc(S(=O)(=O)N2CCCCC2)cc1 (centres undefined)
EC50 [1]: > 20000 nM
Activity [3]: 60%

O=C(O)c1ccc(Oc2cnc(NC(=O)[C@H](Oc3ccc(F)cc3F)c3ccc(S(=O)(=O)C4CC4)cc3)s2)cc1
Cmax [4]: 13.3 µM
bioavailability [5]: 86%
concentration at 1 h [6]: 215 µM
concentration at 3 h [7]: 184 µM
concentration at 1 h [8]: 6 µM
concentration at 3 h [9]: 2.7 µM
AUC(0-t) [10]: 22 µM·h
EC50 [1]: 34 nM
fold change (FC) [2]: 12.2
clearance [11]: 32.6 mL/min/kg
Vd [12]: 1.67 L/kg
half-life [13]: 2.16 h
Drug uptake [14]: 30%
Drug uptake [15]: < 5%
inhibition at 5 min, up to 100 µM ([16]; mouse hepatocytes, with rifamycin SV): 90%
Activity [17]: 21%
Activity [18]: 34%
Activity [19]: Not Active
Activity [20]: Active

O=C(O)C1CCN(Cc2cnc(NC(=O)C(Oc3ccc(F)cc3F)c3ccc(S(=O)(=O)C4CC4)cc3)s2)CC1 (centres undefined)
EC50 [1]: > 10000 nM

O=C(O)c1ccc(Oc2cnc(NC(=O)C(Oc3ccc(F)cc3F)c3ccc(S(=O)(=O)N4CCCC4)cc3)s2)cc1 (centres undefined)
EC50 [1]: 240 nM
fold change (FC) [2]: 3.76

O=C(O)Cc1ccc(Oc2cnc(NC(=O)C(Oc3ccc(F)cc3F)c3ccc(S(=O)(=O)C4CC4)cc3)s2)cc1 (centres undefined)
EC50 [1]: 400 nM

O=C(O)c1ccc(Oc2cnc(NC(=O)C(Oc3ccc(F)cc3F)c3ccc(S(=O)(=O)N4CCOCC4)cc3)s2)cc1 (centres undefined)
EC50 [1]: 330 nM
fold change (FC) [2]: 3

CC(C)(Oc1ccc(F)cc1F)C(=O)Nc1nc(CC(=O)O)c(Cl)s1
Cmax [4]: 326 µM
AUC(0-t) at 2 h [21]: 802 µM·h
clearance [22]: 3.5 mL/min/kg
Vd [23]: 0.4 L/kg
half-life [24]: 1 h
bioavailability [5]: 100%
concentration at 1 h [6]: 111 µM
concentration at 3 h [7]: 104 µM
concentration at 1 h [8]: 220 µM
concentration at 3 h [9]: 85 µM
EC50 [1]: 7000 nM
Activity [25]: Dose-Dependent Effect
Activity [26]: < 60 mg/dL
Drug uptake [14]: < 5%
Drug uptake [15]: 5%
inhibition (INH) ([16]; hepatocytes, 5 min, 100 µM): Not Active

O=C(O)c1ccc(Oc2cnc(NC(=O)C(Oc3ccc(F)cc3F)c3ccc(S(=O)(=O)C4CC4)cc3)s2)cc1 (centres undefined)
EC50 [1]: 190 nM
fold change (FC) [2]: 11.4

O=C(O)c1ccc(Oc2cnc(NC(=O)C(Oc3ccc(F)cc3F)c3ccc(S(=O)(=O)N4CCCCC4)cc3)s2)cc1 (centres undefined)
fold change (FC) [2]: 3.4

O=C(O)C#Cc1cnc(NC(=O)C(Oc2ccc(F)cc2F)c2ccc(S(=O)(=O)C3CC3)cc2)s1 (centres undefined)
EC50 [1]: 2300 nM

O=C(O)c1ccc(Cc2cnc(NC(=O)C(Oc3ccc(F)cc3F)c3ccc(S(=O)(=O)C4CC4)cc3)s2)cc1 (centres undefined)
EC50 [1]: 450 nM

CC(C)(Oc1ccc(F)cc1F)C(=O)Nc1ncc(Oc2ccc(C(=O)O)cc2)s1
concentration at 1 h [6]: 23.3 µM
concentration at 3 h [7]: 11.1 µM
EC50 [1]: 6200 nM
concentration at 1 h [27]: 8.8 µM
concentration at 3 h [28]: 1.4 µM

O=C(O)c1cccc(Oc2cnc(NC(=O)C(Oc3ccc(F)cc3F)c3ccc(S(=O)(=O)C4CC4)cc3)s2)c1 (centres undefined)
EC50 [1]: 2730 nM

O=C(O)c1ccc(Oc2cnc(NC(=O)[C@@H](Oc3ccc(F)cc3F)c3ccc(S(=O)(=O)C4CC4)cc3)s2)cc1
EC50 [1]: 690 nM

O=C(Nc1ncc(CN2CCCC2C(=O)O)s1)C(Oc1ccc(F)cc1F)c1ccc(S(=O)(=O)C2CC2)cc1 (centres undefined)
EC50 [1]: > 10000 nM

O=C(O)Cc1nc(NC(=O)C(Oc2ccc(F)cc2F)c2ccc(S(=O)(=O)N3CCCCC3)cc2)sc1Cl (centres undefined)
EC50 [1]: 500 nM
